PubChem BioAssay (NCI)
Several values for one entry are separate records, joined by “and”; a condition that tells them apart may be missing. Equal entries are not always repeated.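 Values below derive from 48-hour exposures of cells grown in 96-well plates, with endpoints linearly interpolated between the two concentrations bracketing the appropriate inhibition level. GI50 marks 50% less growth. TGI denotes the concentration required for complete inhibition of growth.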

How the values were obtained:
Assay in all cases: growth of human tumour cells (NCI), 48 h
T-47D breast = tested on: T-47D breast
HL-60(TB) leukemia = tested on: HL-60(TB) leukemia
HS 578T breast = tested on: HS 578T breast
HOP-92 NSCLC = tested on: HOP-92 NSCLC
SNB-19 CNS = tested on: SNB-19 CNS
EKVX NSCLC = tested on: EKVX NSCLC
RPMI-8226 leukemia = tested on: RPMI-8226 leukemia
HOP-62 NSCLC = tested on: HOP-62 NSCLC
K-562 leukemia = tested on: K-562 leukemia
MDA-MB-231 breast = tested on: MDA-MB-231 breast

Structure (SMILES)	GI50 (T-47D breast)	TGI (T-47D breast) [µM]	GI50 (HL-60(TB) leukemia)	TGI (HL-60(TB) leukemia) [µM]	GI50 (HS 578T breast)	TGI (HS 578T breast)	GI50 (HOP-92 NSCLC) [nM]	TGI (HOP-92 NSCLC)	GI50 (SNB-19 CNS)	TGI (SNB-19 CNS) [µM]	GI50 (EKVX NSCLC)	TGI (EKVX NSCLC)	GI50 (RPMI-8226 leukemia)	TGI (RPMI-8226 leukemia)	GI50 (HOP-62 NSCLC)	TGI (HOP-62 NSCLC)	GI50 (K-562 leukemia) [nM]	TGI (K-562 leukemia)	GI50 (MDA-MB-231 breast) [nM]	TGI (MDA-MB-231 breast)
C[C@@H]1[C@H]2[C@H](C=C3[C@@H]4CC[C@H]5Cc6nc7c(nc6C[C@]5(C)[C@H]4C[C@@H](O)[C@@]32C)C[C@@H]2CC[C@H]3C4=C[C@@H]5O[C@@]6(CC[C@](C)(CO)O6)[C@@H](C)[C@@]5(O)[C@@]4(C)[C@H](O)C[C@@H]3[C@@]2(C)C7)O[C@]12CCC(C)(C)O2	405 nM	> 41.8	0.419 µM	7.76	165 nM	0.89 µM	716	13.3 µM	0.653 µM	7.28	0.377 µM	14.1 µM	81.9 nM	0.723 µM	861 nM	5.73 µM	345	2.3 µM	469	2.62 µM
O=C1c2ccccc2C(=O)c2c(NC(=O)C(Cl)CCl)cccc21 (stereo not drawn)		> 27.5		2.68		> 100 µM		9.82 µM		32.9		42.7 µM		2.11 µM		23.6 µM		0.395 µM		18.4 µM
COc1cc2cn3c4ccc(O)cc4nc(N)c3c2cc1OC	435 nM	16.4	0.887 µM	2.41	626 nM	22.2 µM	669	8.06 µM	0.211 µM	16.7	2.79 µM	15.4 µM	1250 nM	8.32 µM	375 nM	7.67 µM	34.8	3.6 µM	2000	15.6 µM
COc1ccc2c(c1)C(=O)c1c-2c(OCCN(C)C)nc2cc(OC)ccc12	6100 nM	21.8	1.98 µM	4.26	2840 nM	9.76 µM	1650	7.02 µM	1.12 µM	6.24	2.13 µM	8.63 µM	1710 nM	5.09 µM	2020 nM	8.04 µM	1060	2.82 µM	1420	3.88 µM
NC(=O)c1ccc2nc(-c3ccc(C4(N)CCC4)cc3)c(-c3ccccc3)n2n1	18.6 nM	15.8	11.5 µM	30.2	863 nM	10 µM	815	14.1 µM	11.3 µM	25.8	13.6 µM	49.6 µM	10900 nM	30.9 µM	11600 nM	27.7 µM	13700	36.9 µM	14300	32.3 µM
S=c1nc[nH]c2nc[nH]c12	812 nM and 5810 nM	> 627	3.11 µM and 3.31 µM		9620 nM and 30800 nM	> 100 µM and 561 µM and > 612 µM	578	82.2 µM and 285 µM	65.9 µM and 213 µM	> 750	> 100 µM and 353 µM	> 100 µM and 741 µM and > 750 µM	1180 nM and 10300 nM	> 100 µM and 489 µM and 171 µM	2090 nM and 8000 nM	> 100 µM and 526 µM and > 750 µM	3340	446 µM and 251 µM		> 100 µM and 694 µM and > 750 µM
COc1cc(/C=C/C(=O)NC[C@]2(O)CCC3C4CCc5cc(O)ccc5C4CCC32C)ccc1O (stereo partly drawn)	6530 nM	> 100	3.34 µM	90.7	67600 nM	> 100 µM	21800	> 100 µM	49 µM	> 100	13.9 µM	> 100 µM	3160 nM	16.7 µM	26700 nM	> 100 µM	3740	28.4 µM	18000	> 100 µM
CNS(=O)(=O)c1ccccc1C(=N)c1ccccc1		> 100		> 100		> 100 µM		> 100 µM		> 100		> 100 µM		> 100 µM		> 100 µM		> 100 µM		> 100 µM
